From US20260151410A1, “Tetrahydronaphthyridine Derivatives, Medicine Prepared Therefrom, and Applications Thereof in Preventing and Treating Adhesion-related Diseases” (SCINNOHUB PHARMACEUTICAL CO., LTD, priority 2022, published 2026)
pIC50: −log10 of the molar value. Like-named read-outs stand apart in the source and are kept apart here.

Assays:
TACE(ADAM17) = TACE(ADAM17) (Homo sapiens, UniProt P78536); experiment: Inhibition of recombinant human protease TACE, fluorescence assay; format: biochemical
TACE(ADAM17), sequence (P78536 215-824): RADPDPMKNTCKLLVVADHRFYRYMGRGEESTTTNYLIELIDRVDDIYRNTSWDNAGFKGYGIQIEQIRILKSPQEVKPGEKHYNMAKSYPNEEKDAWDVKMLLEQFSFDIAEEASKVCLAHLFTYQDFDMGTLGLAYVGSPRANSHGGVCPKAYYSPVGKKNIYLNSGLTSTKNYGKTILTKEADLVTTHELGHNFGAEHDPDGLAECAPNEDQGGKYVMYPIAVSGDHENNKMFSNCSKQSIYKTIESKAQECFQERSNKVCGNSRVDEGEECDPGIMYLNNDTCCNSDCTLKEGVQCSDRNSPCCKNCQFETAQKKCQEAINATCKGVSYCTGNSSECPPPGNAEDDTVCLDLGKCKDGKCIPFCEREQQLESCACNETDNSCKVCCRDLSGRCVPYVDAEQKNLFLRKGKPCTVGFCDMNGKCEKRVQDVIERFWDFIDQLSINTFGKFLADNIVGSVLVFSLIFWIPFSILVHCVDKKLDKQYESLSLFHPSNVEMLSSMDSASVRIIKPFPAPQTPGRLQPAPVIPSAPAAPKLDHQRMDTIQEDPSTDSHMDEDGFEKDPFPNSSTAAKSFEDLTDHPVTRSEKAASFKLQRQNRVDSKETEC
Description: (§1) The purpose is to determine the inhibitory activity of the compounds of the present disclosure on recombinant human proteases Trypsin, MMP9, and TACE.
(§2) • Trypsin: 100 mM Tris-HCl, 75 mM NaCl, 2.5 mM CaCl2, 10 mM Cysteine, pH 7.5 • MMP9: 50 mM Tris, 10 mM CaCl2), 150 mM NaCl, 0.05% Brij-35 (w/v), pH7.5 • TACE: 25 mM Tris, 2.5 μM ZnCl2, 0.005% Brij-35 (w/v), pH 9.0 […]
(§3) The inhibitory effect of the compounds of the present disclosure on the above three proteases was determined by the above test, and the measured IC50 values were as follows.

[1] = test system: total proteases in the homogenate of the jejunal segment of the small intestine of rats; experiment: Inhibition of total proteases in rat small intestine (jejunum) homogenate, fluorescent protease activity kit; format: biochemical; settings: ΔRFU within 30 minutes
Source text: The purpose is to determine the inhibitory activity of the compounds of the present disclosure on total proteases in the homogenate of the jejunal segment of the small intestine of rats.
• a) Preparation of rat intestinal homogenate and protein quantification • i. Tissue sampling: The experimental animals were anesthetized and bled to death. The small intestine was folded in half from the ileocecal junction to the duodenum at the lower end of the stomach, and the jejunum in the middle with a size of about 4 cm was taken; after washing with a 0.9% sodium chloride solution, it was quickly frozen in liquid nitrogen and then transferred to −80° C. for storage; • ii. […] The total protein of the homogenate was quantified using the BCA protein concentration assay kit according to the instructions. • b) Inhibitory activity test of compound • i. […]
• v. […] The fluorescence signals at FI=Ex 485/Em 520 nm were detected continuously within 30 minutes (once every 5 minutes) using a kinetic mode. • c) Data analysis
The difference between fluorescence signals within 30 minutes was calculated and recorded as ΔRFU. […]
The inhibitory effect of the compounds of the present disclosure on the total proteases in the rat small intestine homogenate was determined by the above test, and the measured IC50 values were as follows.

[2] = test system: postoperative intestinal adhesions; experiment: Abdominal adhesion model by the file method (cecal friction), Phillips grading; format: in vivo, SD rats; settings: rats; gavage 2% solution 12 mL/kg 2 hours before operation + peritoneal irrigation 1% solution 2 mL/animal; 7th day after operation
Source text: • 3.1 Experimental animals: The male SPF SD rats (220 g each) were purchased from the Experimental Animal Center of Hangzhou Medical College and passed the inspection of Zhejiang Provincial Experimental Animal Quality Supervision and Inspection Station. […] The solvent used for intragastric administration was compound polyethylene glycol electrolyte solution; the solvent used for irrigation administration was sterile saline solution. • 3.3 Preparation of solvent: One bag of compound polyethylene glycol electrolyte solution (68.56 g) was dissolved in 1 L of pure water, and is further added with 44 g of glucose (containing water) to make the glucose content of 4% (w/v) in the solvent. The prepared solvent was stored at 2-8° C. and used within one week. • 3.4 Preparation of intragastric solution: An amount of test sample was weighed and added with an appropriate amount of sterile ultrapure water to prepare a 20% (w/v) stock solution, then an equivalent amount of NaOH was added to adjust the pH to neutral until completely dissolved (the pH value was measured). […]

[3] = test system: postoperative intra-abdominal adhesions; settings: for extent (and locations) of intra-abdominal adhesions compared with the model group: rats, single gavage 12 mL/kg 2 hours before operation, 7 days after operation
Description: Seventy male SPF SD rats, 220±20 g each, were purchased from Beijing Vital River Experimental Animal Technology Co., Ltd. After 2 weeks of adaptive feeding in the laboratory, the animals were numbered by ear tags and randomized into 7 groups, with […] in each group.
The positive drug was tranexamic acid (TXA).
An amount of the positive drug tranexamic acid (TXA) was weighed and added with the electrolyte solution to prepare 64 mM and 21 mM solutions.
The animals were given a single dose at 12 mL/kg by oral gavage 2 hours before the laparotomy operation. The animals in the sham operation group and the model group were given the solvents.
The animals were fasted but water was given before the operation (>12 hours). The abdomen was locally depilated after inhalation anesthesia and disinfected with iodophor solution. An incision with the size of 3 cm was made in the midline area of the abdomen of the experimental animal using a scalpel, and the cecum was taken out. The serosal layer on each side of the ileocecal region was repeatedly rubbed with sterile gauze until there were needle-like bleeding points on the surface, forming a damaged wound inside and outside of the cecum. The cecum was returned back to the abdominal cavity. The abdominal cavity was closed, sutured layer by layer with surgical sutures, and disinfected. The entire operation should be performed aseptically. The experimental operations were carried out for 4 animals in each group. In the sham operation group, the animal's abdomens were opened only without damaging the cecum.
The animals were dissected and observed 7 days after the operation.
The intestinal adhesions were scored using the Phillips grading method.

MMP9 = MMP9 (Homo sapiens, UniProt P14780); experiment: Inhibition of recombinant human protease MMP9, fluorescence assay; format: biochemical
MMP9, sequence (P14780 94-707): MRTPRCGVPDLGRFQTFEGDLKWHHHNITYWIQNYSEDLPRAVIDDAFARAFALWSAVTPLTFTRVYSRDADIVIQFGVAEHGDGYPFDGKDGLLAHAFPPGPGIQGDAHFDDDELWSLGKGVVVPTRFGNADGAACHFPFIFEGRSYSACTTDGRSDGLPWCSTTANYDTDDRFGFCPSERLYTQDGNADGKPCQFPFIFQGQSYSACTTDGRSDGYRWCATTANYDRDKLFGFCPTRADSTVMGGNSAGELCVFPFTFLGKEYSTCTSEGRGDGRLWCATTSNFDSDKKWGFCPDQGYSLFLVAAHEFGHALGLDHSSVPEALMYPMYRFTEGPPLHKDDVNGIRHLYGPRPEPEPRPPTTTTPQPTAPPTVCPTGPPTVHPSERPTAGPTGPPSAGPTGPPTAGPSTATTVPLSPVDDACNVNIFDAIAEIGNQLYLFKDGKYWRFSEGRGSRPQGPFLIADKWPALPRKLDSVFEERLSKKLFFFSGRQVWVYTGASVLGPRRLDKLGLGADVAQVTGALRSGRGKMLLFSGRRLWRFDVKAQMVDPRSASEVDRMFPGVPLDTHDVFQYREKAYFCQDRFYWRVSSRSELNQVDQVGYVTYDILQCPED
Description: as §1, §2, §3

| Structure (SMILES) | pIC50 (TACE(ADAM17)) | pIC50 [1] | animals with quantity and extent of intestinal adhesions significantly improved compared with the model group [2] | extent (and locations) of intra-abdominal adhesions compared with the model group ([3]; 64 mM solution) | pIC50 (MMP9) | pIC50 (TACE(ADAM17); recombinant human TACE 0.2 μg/mL, substrate 20 μM, room temperature 30 minutes, read-out: IC50 TACE(ADAM17)) | extent (and locations) of intra-abdominal adhesions compared with the model group ([3]; 21 mM solution) | pIC50 (MMP9; recombinant human MMP9 0.2 μg/mL, substrate 10 μM, room temperature 30 minutes, read-out: IC50 MMP9) | animal deaths after the operation ([3]; rat, in vivo) |
| --- | --- | --- | --- | --- | --- | --- | --- | --- | --- |
| Cl.O=P(O)(O)c1ccc2c(n1)CCNC2 [Preparative example 2, (5,6,7,8-tetrahydro-1,6-naphthyridin-2-yl) phosphonic acid hydrochloride] | 2.13 | 1.75 | more than 80% | improved to a certain extent | ~1.60 |  |  |  |  |
| Cl.O=C(O)c1ccc2c(n1)CCNC2 [Preparative example 1, 5,6,7,8-tetrahydro-1,6-naphthyridine-2-carboxylic acid hydrochloride] |  | 1.87 |  | reduced significantly |  | 2.27 | reduced | 2.18 |  |
| NC[C@H]1CC[C@H](C(=O)O)CC1 [tranexamic acid, reference compound] |  |  |  | significantly alleviated |  |  | exhibited an alleviating trend |  | one animal died |
